In PubChem BioAssay AID1259408 (Genetic Toxicology Data Bank (GENE-TOX), 2018):
Active and inactive are the calls of the source. The rule behind the calls is not given here.

Tested on: GENE-TOX genotoxicity assays, various organisms and cells
Experiment: GENE-TOX mutagenicity studies
Conditions: for call: Assay Type: In vivo carcinogenicity studies, Assay Code: CCG+
[1] = Species/Cell Type: Human lymphocytes, Assay Type: Sister-chromatid exchange (SCE) in vitro, Assay Code: SCL+D, Dose Response: With dose response, Evaluation Type: Evaluation B (Post-1980)
[2] = Species/Cell Type: Human, Assay Type: Sister-chromatid exchange (SCE) in vitro, Assay Code: SC1+D, Dose Response: With dose response, Evaluation Type: Evaluation B (Post-1980)
[3] = Species/Cell Type: Mammalian polychromatic erythrocytes, Assay Type: Micronucleus test, chromosome aberrations, Assay Code: MNTT, Evaluation Type: Evaluation B (Post-1980)
[4] = Species/Cell Type: Escherichia coli polA (W3119 vs P3478), Assay Type: Rec-assay, DNA effects (bacterial DNA repair), Assay Code: RE1T, Evaluation Type: Evaluation A (Pre-1980)
[5] = Species/Cell Type: Salmonella typhimurium (one or more of the five standard strains: TA98, TA100, TA1535, TA1537, and TA1538), Assay Type: Histidine reverse gene mutation, Ames assay, Assay Code: SAL+, Evaluation Type: Evaluation A (Pre-1980)
[6] = Species/Cell Type: Salmonella typhimurium (one or more of the five standard strains: TA98, TA100, TA1535, TA1537, and TA1538), Assay Type: Histidine reverse gene mutation, Ames assay, Assay Code: SALT, Evaluation Type: Evaluation A (Pre-1980)
[7] = Species/Cell Type: Nonhuman, Evaluation Type: Evaluation A (Pre-1980)
[8] = Species/Cell Type: Salmonella typhimurium, Assay Type: Forward and reverse gene mutation, host-mediated assay, Assay Code: HMA+, Evaluation Type: Evaluation A (Pre-1980)

CC1=C(O)C(=O)CC1
mutagenic call [1]: active; positive
mutagenic call [2]: active; positive

CNO
mutagenic call (Species/Cell Type: Neurospora crassa, Assay Type: Reverse gene mutation, Assay Code: NER+, Evaluation Type: Evaluation A (Pre-1980)): active; positive

COc1ccc(CCC(=O)c2c(O)cc(O)cc2O)cc1O
mutagenic call [3]: no conclusion

CC(C)CBr
mutagenic call [4]: no conclusion

Cc1c2ccccc2c(C2CO2)c2ccccc12 (stereo unspecified)
mutagenic call [5]: active; positive

c1ncc2[nH]cnc2n1
mutagenic call (Species/Cell Type: Escherichia coli polA (W3119 vs P3478), Assay Type: Rec-assay, DNA effects (bacterial DNA repair), Assay Code: RE1-, Evaluation Type: Evaluation A (Pre-1980)): inactive; negative

CO[C@H](C(=O)[C@@H](O)[C@@H](C)O)[C@@H]1Cc2cc3cc(O[C@H]4C[C@@H](O[C@H]5C[C@@H](O)[C@H](O)[C@@H](C)O5)[C@H](O)[C@@H](C)O4)c(C)c(O)c3c(O)c2C(=O)[C@H]1O[C@H]1C[C@@H](O[C@H]2C[C@@H](O[C@H]3C[C@](C)(O)[C@H](O)[C@@H](C)O3)[C@@H](O)[C@@H](C)O2)[C@H](O)[C@@H](C)O1
mutagenic call (Species/Cell Type: Chinese hamster ovary (CHO) cells, Assay Type: Forward gene mutation at the HPRT locus, Assay Code: CHO+, Evaluation Type: Evaluation B (Post-1980)): active; positive

O[C@@H]1C=Cc2cc3ccc4ccccc4c3cc2[C@H]1O
mutagenic call (Species/Cell Type: Nonhuman, Assay Type: Sister-chromatid exchange (SCE) in vitro, Assay Code: SC2+D, Dose Response: With dose response, Evaluation Type: Evaluation B (Post-1980)): active; positive
mutagenic call [6]: no conclusion

OC[P+](CO)(CO)CO
mutagenic call [3]: no conclusion

O=[N+]([O-])c1cccc([N+](=O)[O-])c1Cl
mutagenic call [4]: no conclusion

O=c1[nH]c(=O)n([C@H]2C[C@H](O)[C@@H](COP(=O)(O)O)O2)cc1[N+](=O)[O-]
mutagenic call [1]: active; positive
mutagenic call [2]: active; positive

C[C@@H]1O[C@@H](OC[C@H]2O[C@@H](Oc3c(-c4ccc(OCCO)c(OCCO)c4)oc4cc(OCCO)cc(O)c4c3=O)[C@H](O)[C@@H](O)[C@@H]2O)[C@H](O)[C@H](O)[C@H]1O
mutagenic call (Species/Cell Type: Mammalian polychromatic erythrocytes, Assay Type: Micronucleus test, chromosome aberrations, Assay Code: MNT-, Evaluation Type: Evaluation B (Post-1980)): inactive; negative

CC(C(=O)O)c1ccc(N2CC=CC2)c(Cl)c1 (stereo unspecified)
mutagenic call (Species/Cell Type: Human lymphocytes, Assay Type: Sister-chromatid exchange (SCE) in vivo, Assay Code: SCY+, Evaluation Type: Evaluation B (Post-1980)): active; positive

NC(=O)N1c2ccccc2C=Cc2ccccc21
mutagenic call (Species/Cell Type: Human lymphocytes, Assay Type: Sister-chromatid exchange (SCE) in vitro, Assay Code: SCLT, Evaluation Type: Evaluation B (Post-1980)): no conclusion
mutagenic call (Species/Cell Type: Human, Assay Type: Sister-chromatid exchange (SCE) in vitro, Assay Code: SC1T, Evaluation Type: Evaluation B (Post-1980)): no conclusion
mutagenic call [6]: no conclusion

CCC(=O)O[C@H]1CC[C@H]2[C@@H]3CCC4=CC(=O)CC[C@]4(C)[C@H]3CC[C@]12C
mutagenic call (Species/Cell Type: Human, Sex: Male, Assay Type: Sperm morphology, Assay Code: SPH+, Evaluation Type: Evaluation A (Pre-1980)): active; positive
call [7]: active; positive

O=S1(=O)CCCO1
mutagenic call (Species/Cell Type: Escherichia coli polA (W3119 vs P3478), Assay Type: Rec-assay, DNA effects (bacterial DNA repair), Assay Code: RE1+, Evaluation Type: Evaluation A (Pre-1980)): active; positive
mutagenic call (Species/Cell Type: Fischer rat embryo (RLV/1706) cells, Assay Type: Cell transformation, viral enhanced, Assay Code: CTR+, Evaluation Type: Evaluation A (Pre-1980)): active; positive
mutagenic call (Species/Cell Type: Hordeum vulgare (barley), Assay Type: Chromosome aberrations, Assay Code: HOC+D, Dose Response: With dose response, Evaluation Type: Evaluation A (Pre-1980)): active; positive
mutagenic call (Species/Cell Type: Human diploid fibroblasts, Assay Type: Unscheduled DNA synthesis (UDS) in vitro, DNA effects, Assay Code: UDH+D, Dose Response: With dose response, Evaluation Type: Evaluation A (Pre-1980)): active; positive
call [7]: active; positive
mutagenic call (Species/Cell Type: Nonhuman, Assay Type: Sister-chromatid exchange (SCE) in vitro, Assay Code: SC2+D, Dose Response: With dose response, Evaluation Type: Evaluation A (Pre-1980)): active; positive
mutagenic call (Species/Cell Type: Saccharomyces cerevisiae, Assay Type: Mitotic recombination or gene conversion, Assay Code: YEC+, Evaluation Type: Evaluation A (Pre-1980)): active; positive
mutagenic call (Species/Cell Type: Saccharomyces cerevisiae, Assay Type: Mitotic recombination or gene conversion, Assay Code: YEH+, Evaluation Type: Evaluation A (Pre-1980)): active; positive
mutagenic call [5]: active; positive
mutagenic call [8]: active; positive
mutagenic call (Species/Cell Type: Schizosaccharomyces pombe, Assay Type: Reverse gene mutation, Assay Code: YEZ+, Evaluation Type: Evaluation A (Pre-1980)): active; positive
mutagenic call (Species/Cell Type: Syrian hamster embryo (SA7/SHE) cells, Assay Type: Cell transformation, viral enhanced, Assay Code: CT7+, Evaluation Type: Evaluation A (Pre-1980)): active; positive
mutagenic call (Species/Cell Type: Syrian hamster embryo (SHE) cells, Assay Type: Cell transformation, clonal assay, Assay Code: CTCT, Evaluation Type: Evaluation A (Pre-1980)): no conclusion
mutagenic call (Species/Cell Type: Vicia faba, Assay Type: Chromosome aberrations, Assay Code: VIC+, Evaluation Type: Evaluation A (Pre-1980)): active; positive

CCCOC1=C(N2CC2)C(=O)C(OCCC)=C(N2CC2)C1=O
mutagenic call (Species/Cell Type: Drosophila melanogaster, Assay Type: Sex-linked recessive lethal gene mutation, Assay Code: SRL+, Evaluation Type: Evaluation A (Pre-1980)): active; positive
mutagenic call [1]: active; positive
mutagenic call [2]: active; positive

Nc1c(N=Nc2ccc([N+](=O)[O-])cc2)c(S(=O)(=O)O)cc2cc(S(=O)(=O)O)c(N=Nc3ccccc3)c(O)c12
mutagenic call (Species/Cell Type: Bacillus subtilis (H17 vs M45), Assay Type: Rec-assay, spot test, DNA effects (bacterial DNA repair), Assay Code: REWT, Evaluation Type: Evaluation A (Pre-1980)): no conclusion

C#C[C@]1(OC(C)=O)CC[C@H]2[C@@H]3CCC4=CC(=O)CC[C@@H]4[C@H]3CC[C@@]21C
mutagenic call (Species/Cell Type: Rodents, Sex: Male, Assay Type: Dominant lethal test, Assay Code: DLTT, Evaluation Type: Evaluation A (Pre-1980)): no conclusion

NC(=S)NCCNC(N)=S
mutagenic call [8]: active; positive
